Test results: publication PMC12261233, “Photoactivatable Cyclometalated Ir(III) Compound Penetrates the Blood-Brain Barrier in 3D Spheroidal and Advanced 3D Organoid Models of Inherently Resistant and Aggressive Brain Tumors” (ACS Pharmacology & Translational Science, 2025)

Experiments:
[1] = Photocatalytic oxidation of NADH under blue light; format: biochemical; settings: blue light 465 nm, 4.8 mW cm^–2; NADH 100 µM, complex 5 µM
Experimental: Photostability is essential for PDT agents, as photobleaching can compromise their effectiveness. […] Control experiments in the absence of Ir(III) complexes (Figure S24) or light (Figure S25) corroborated the photocatalytic character of this transformation. […] Additionally, singlet oxygen (^1O2) is the primary cytotoxic species in Type II PDT. , The ability of complexes Ir3–Ir5 and Ir10 to generate singlet oxygen was evaluated by measuring the decrease in […] (DPBF) absorbance at 411 nm under blue light irradiation (Figure S26). […] This confirmed the production of hydroxyl radicals, particularly with complexes Ir3 and Ir10, after 8 min of irradiation (Figure S29).
1. Photocatalytic properties of complexes Ir1−Ir10 in cell-free media.
1.1. Photooxidation of NADH.
The ability of the complexes to photocatalyse the oxidation of NADH was evaluated by recording the absorption spectra of NADH (100 µM) in the presence of complex (5 µM) in PBS (5% DMF) upon blue light irradiation (EXPO-Panels from Luzchem (Canadá)) (465 nm, 5.0 […]
1.2. Quantum yields for the generation of 1O2. […]
Where ΦΔR is the reference quantum yield, mR and mS are the slopes of the reference and sample, respectively, and AR and AS are the absorbance of the reference and the sample at the […]

U87MG spheroids [2] = test: Detection of ROS (CellRox) and PPI in spheroids by confocal microscopy; format: cell-based, human
Experimental: We evaluated ROS induction in glioblastoma U87MG spheroids treated with Ir4 at its IC50 concentration for 3 h, followed by blue laser light irradiation (405 nm, 60 s, 1 mW). ROS levels were quantified using the CellRox probe, with PPI employed to assess immediate cell death. Z-stack imaging was performed before irradiation and at 1, 15, and 30 min postirradiation (Figure , panel I). Mean fluorescence intensity in the z-stack projections quantified ROS generation (Figure , panel II).
The spheroids were exposed to Ir4 (IC50, U87MG 3D, 72 h) for 3 h or maintained under drug-free conditions (control). Subsequently, the samples were stained with CellRox reagent (5 μM) and PPI (8 μg mL^–1) before being irradiated for 60 s with blue laser light (405 nm, 1 mW). Imaging of the samples was conducted before or immediately after the irradiation (1 min postirradiation) and at defined time intervals (15 and 30 min). The fluorescence scanning was performed sequentially in z-stack mode (10 z-stacks). Postirradiation imaging was conducted for a total of 90 min, with only the data collected up to 30 min being presented and quantified. The experiments were independently replicated in triplicate.

U87MG spheroids [3] = test: Morphology and diameter of spheroids after treatment and irradiation (phase contrast); format: cell-based, human; settings: 90 min treatment, 30 min blue light, 70 h drug-free incubation
Experimental: We further investigated the effects of treatment and irradiation on tumor spheroids by analyzing the morphology and diameter of spheroids from the U87MG cell line. Morphogenic parameters were assessed using phase contrast microscopy at 24-h intervals during the preformation phase and post-treatment, culminating at 144 h. Initial mean diameters of the spheroids were 280 ± 11 μm, increasing to 550 μm after 70 h of drug-free incubation. U87MG spheroids proliferated rapidly. Rapidly growing tumor cells are generally more sensitive to treatment, whereas quiescent tumor cells are moderately sensitive to metal-based compounds.
The spheroid models underwent treatment with varying concentrations of compounds, focusing on equitoxic concentrations during blue light exposure. The analysis included both irradiated and nonirradiated samples to assess nonspecific toxicity under dark conditions. […]
Figure S30. […] Phase contrast microphotographs were obtained for spheroids generated from U87MG cells (panel A), and the respective mean diameters were analyzed and shown in panel B for U87MG spheroids. […] Mean diameters for dark-incubated samples were analyzed at the same concentrations as those for irradiated samples to assess the impact of irradiation. […]

hCMEC/D3 cells = tested on: hCMEC/D3 cells; parameters: method as in number not printed (footnote c: Data taken from the ref); settings: comparison value; ref number not printed (footnote c: Data taken from the ref); cited from earlier work

SMILES: Cc1ccc(-c2cc3[n+]4c(c2)-c2cccc[n+]2[Ir-3]42([Cl])([c]4cc5ccccc5cc4-c4n(Cc5ccc(C(F)(F)F)cc5)c5ccccc5[n+]42)[n+]2ccccc2-3)cc1.F[P-](F)(F)(F)(F)F [Ir3]
- Turnover Frequency (TOF) of NADH photo-oxidation [1]: about 110 h^–1

SMILES: CCCCn1c2[n+](c3cc(C(=O)OC)ccc31)[Ir-3]13([Cl])([c]4ccccc4-2)[n+]2ccccc2-c2cc(-c4ccc(C)cc4)cc([n+]21)-c1cccc[n+]13.F[P-](F)(F)(F)(F)F [Ir4]
- PPI fluorescence intensity postirradiation (U87MG spheroids [2]; 15 and 30 min postirradiation): slight but significant increase
- ROS level compared to preirradiation level, 1 min (U87MG spheroids [2]; IC50 3 h, 405 nm 60 s 1 mW, 1 min postirradiation): 1.8 fold
- ROS level compared to preirradiation level, 15 min (U87MG spheroids [2]; IC50 3 h, 405 nm 60 s 1 mW, 15 min postirradiation): 2.3 fold
- ROS level compared to preirradiation level, 30 min (U87MG spheroids [2]; IC50 3 h, 405 nm 60 s 1 mW, 30 min postirradiation): 2.5 fold
- ROS level versus untreated controls before laser irradiation (U87MG spheroids [2]; IC50 (U87MG 3D, 72 h) for 3 h, CellRox, dark): 1.8 times
- effect on spheroid diameter / growth (U87MG spheroids [3]): spheroid diameters decreased below their initial size

SMILES: Cn1nnc2c(C(N)=O)ncn2c1=O [Temozolomide, reference compound]
- P app (hCMEC/D3 cells): 0.36 × 10^–4 cm·s^–1
